Laboratory results taken from patent publication US8227604B2, “Hybrid 2-aminotetralin and aryl-substituted piperazine compounds and their use in altering CNS activity” (Wayne State University, priority 2001, dated 2012).

Legend:
D3 receptor [1] = target: T1, D3 receptor (Homo sapiens, UniProt P35462); assay: Agonist potency by [3H]thymidine incorporation (mitogenesis), D3; type: cell-based; design: expressed in transfected cells; host or cells: CHOp-D3 cells; settings: [3H]thymidine incorporation; for Emax: >80% full agonist, read-out: D3 % Maxm Stim
T1 sequence (P35462 whole entry): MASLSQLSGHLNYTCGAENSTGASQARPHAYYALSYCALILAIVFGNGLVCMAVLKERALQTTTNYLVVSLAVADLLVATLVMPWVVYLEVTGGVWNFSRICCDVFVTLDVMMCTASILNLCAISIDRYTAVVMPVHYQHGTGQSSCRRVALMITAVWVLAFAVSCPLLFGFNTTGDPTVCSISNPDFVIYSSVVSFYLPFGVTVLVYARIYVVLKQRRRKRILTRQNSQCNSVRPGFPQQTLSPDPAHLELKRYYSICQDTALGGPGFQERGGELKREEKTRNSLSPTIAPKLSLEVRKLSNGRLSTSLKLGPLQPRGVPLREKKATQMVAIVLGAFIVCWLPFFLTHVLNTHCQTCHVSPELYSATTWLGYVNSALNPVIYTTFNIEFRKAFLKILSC
Experimental: (§1) Potential as domaminergenic agonists was assayed by ^3H-thymidine incorporation by standard techniques.
(§2) The EC50 values thus indicate intrinsic activities or functional activities of these compounds. The value of % maximum stimulation indicates whether a compound is a partial agonist or full agonist. Generally, a value greater than 80% is considered as a full agonist and anything less than 80% is considered as a partial agonist.

D3 receptor [2] = target: T1, D3 receptor; assay: Binding affinity at cloned human D3 receptor, [3H]YM-09151-2 (CHOp-D3 cells); design: expressed in transfected cells; host or cells: CHOp-D3 cells; settings: for Ki: cloned human D3; for D2/D3: ratio of Ki D2 to Ki D3, [3H]YM-09151-2 protocol of Table 4
Experimental: (§3) CHOp-cells (human receptors) are grown to confluence in a minimum essential medium (α MEM) containing 10% fetal calf serum, 0.05% pen-strep, and 600 μg/ml of G418. The cells are scraped from the 100 by 20 mm plates and centrifuged at 500. g for 5 min. The pellet is homogenized by polytron in 50 mM Tris-HCl, pH 7.7, and centrifuged at 27,000·G for 12 min. The pellet is resuspended in 50 mM Tris, D2 at 5 mg protein/ml, D3 at 1 mg protein/ml, and stored at −70° C. in 1-ml aliquots.
(§4) On the day of the experiment, CHOp-D2 or CHOp-D3 cells are thawed, resuspended in 50 mM Tris, and centrifuged at 27,000·G for 12 min. The pellet is then resuspended at 5 mg protein/80 ml (D2) and 1 mg protein/80 ml (D3) in 50 mM Tris containing 120 mM of NaCl, 5 mM of KCl, 1.5 mM of CaCl2, 4 mM of MgCl2, and 1 mM of EDTA, pH 7.4. […] Nonspecific binding is determined with 1 mM of chlorpromazine. The plates are incubated at 25° C. for 60 min before filtration and counted as usual. The filters are soaked in 0.1% PEI before filtering.

D2 receptor [3] = target: T2, D2 receptor (Homo sapiens, UniProt P14416); assay: Agonist potency by [3H]thymidine incorporation (mitogenesis), D2; type: cell-based; settings: [3H]thymidine incorporation; for Emax: >80% full agonist, read-out: D2 % Maxm Stim
T2 construct: expressed in transfected cells
T2 sequence (P14416 whole entry): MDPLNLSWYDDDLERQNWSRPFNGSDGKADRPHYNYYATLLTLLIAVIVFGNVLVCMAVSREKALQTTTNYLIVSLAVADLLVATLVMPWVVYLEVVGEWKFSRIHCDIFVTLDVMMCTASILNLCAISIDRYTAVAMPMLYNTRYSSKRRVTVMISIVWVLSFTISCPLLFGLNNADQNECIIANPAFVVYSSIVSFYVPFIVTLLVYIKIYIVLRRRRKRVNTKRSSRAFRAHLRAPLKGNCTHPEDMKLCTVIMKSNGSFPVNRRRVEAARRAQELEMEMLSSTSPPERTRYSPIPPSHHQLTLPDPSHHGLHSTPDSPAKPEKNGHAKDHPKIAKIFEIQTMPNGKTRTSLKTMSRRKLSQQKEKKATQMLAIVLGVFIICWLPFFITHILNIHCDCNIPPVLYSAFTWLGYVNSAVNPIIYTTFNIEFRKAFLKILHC
Experimental: as §1, §2

5HT2C receptor = target: T3, 5HT2C receptor (Homo sapiens, UniProt P28335); assay: Binding affinity at cloned human 5HT2C receptor, [3H]Mesulergine
T3 construct: expressed in transfected cells
T3 sequence (P28335 33-458): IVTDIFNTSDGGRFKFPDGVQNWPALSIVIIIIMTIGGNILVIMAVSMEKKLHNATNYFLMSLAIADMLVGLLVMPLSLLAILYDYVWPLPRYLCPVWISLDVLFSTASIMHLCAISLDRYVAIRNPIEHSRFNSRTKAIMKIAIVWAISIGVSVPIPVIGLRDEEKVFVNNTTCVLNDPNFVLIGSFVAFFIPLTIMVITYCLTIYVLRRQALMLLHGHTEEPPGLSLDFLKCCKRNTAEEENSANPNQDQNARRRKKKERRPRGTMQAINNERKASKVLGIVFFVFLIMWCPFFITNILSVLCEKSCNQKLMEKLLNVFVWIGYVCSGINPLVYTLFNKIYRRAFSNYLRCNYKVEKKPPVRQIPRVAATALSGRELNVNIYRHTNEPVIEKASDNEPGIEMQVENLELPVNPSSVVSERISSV

D2L receptor = target: T4, D2L receptor (Homo sapiens, UniProt P14416); assay: Inhibition constants for binding to cloned D2L receptor expressed in HEK cells, [3H]spiperone
T4 construct: expressed in transfected cells; host or cells: HEK cells
T4 sequence (P14416 whole entry): as the sequence (P14416 whole entry) above
Experimental: (§5) Inhibition constants for binding to cloned D2L and D3 receptors expressed in HEK cells by displacing [^3H] spiperone were measured for several compounds.

5HT1A receptor = target: T5, 5HT1A receptor (Homo sapiens, UniProt P08908); assay: Binding affinity at cloned human 5HT1A receptor, [3H]8-OH-DPAT (HA7 cells)
T5 construct: expressed in transfected cells; host or cells: HA7 cells
T5 sequence (P08908 1-422): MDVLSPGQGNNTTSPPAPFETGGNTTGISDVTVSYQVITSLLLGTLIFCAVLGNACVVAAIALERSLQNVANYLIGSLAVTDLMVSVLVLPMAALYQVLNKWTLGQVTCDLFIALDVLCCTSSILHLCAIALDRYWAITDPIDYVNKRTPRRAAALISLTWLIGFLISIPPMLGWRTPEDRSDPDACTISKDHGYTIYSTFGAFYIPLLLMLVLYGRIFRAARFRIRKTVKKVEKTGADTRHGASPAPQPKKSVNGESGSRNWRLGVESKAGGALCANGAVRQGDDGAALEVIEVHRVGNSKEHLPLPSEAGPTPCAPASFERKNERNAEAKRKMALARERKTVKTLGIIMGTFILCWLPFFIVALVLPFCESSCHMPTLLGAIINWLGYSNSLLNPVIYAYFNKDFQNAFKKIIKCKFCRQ
Experimental: HA7 cells (human receptor) are grown to confluence in DMEM containing 10% fetal calf serum, 0.05% penicillin-streptomycin (pen-strep), and […] of G418. The cells are scraped from the 100 by 20 mm plates and centrifuged at 500·G for 5 min. The pellet is homogenized in 50 mM Tris-HCl, pH 7.7, with a polytron, centrifuged at 27,000·G and resuspended at 10 mg protein/ml in the same buffer. The homogenate is then stored at −70° C. in 1-ml aliquots.
The thawed cells are washed once and resuspended at 10 mg protein/80 ml in 25 mM Tris-HCl containing 100 μM of ascorbic acid and 10 mM of nialamide at pH 7.4. The assay is performed in triplicate in a 96-well plate. To 100 μl of [^3H]8-OH-DPAT (0.5 nM final conc), […] of test compound or buffer and 0.8 ml of cell homogenate (0.1 mg protein/well) is added to each well by a Tomtec Quadra 96. Nonspecific binding is defined using 1 μM dihydroergotamine. The plates are incubated at 25° C. for 60 min, then filtered. The incubation is terminated by rapid filtration through glass fiber filter paper on a Tomtec cell harvester. The filters are washed four times with ice-cold 50 mM Tris-HCl, pH 7.7, dried overnight, bagged with 10 ml scintillation cocktail before counting for 2 min. on a Wallac Betaplate 1205 liquid scintillation counter.

D1 receptor = target: T6, D1 receptor (Homo sapiens, UniProt P21728); assay: Binding affinity at cloned human D1 receptor, [3H]SCH23390 (LHD1 cells)
T6 construct: expressed in transfected cells; host or cells: LHD1 cells
T6 sequence (P21728 whole entry): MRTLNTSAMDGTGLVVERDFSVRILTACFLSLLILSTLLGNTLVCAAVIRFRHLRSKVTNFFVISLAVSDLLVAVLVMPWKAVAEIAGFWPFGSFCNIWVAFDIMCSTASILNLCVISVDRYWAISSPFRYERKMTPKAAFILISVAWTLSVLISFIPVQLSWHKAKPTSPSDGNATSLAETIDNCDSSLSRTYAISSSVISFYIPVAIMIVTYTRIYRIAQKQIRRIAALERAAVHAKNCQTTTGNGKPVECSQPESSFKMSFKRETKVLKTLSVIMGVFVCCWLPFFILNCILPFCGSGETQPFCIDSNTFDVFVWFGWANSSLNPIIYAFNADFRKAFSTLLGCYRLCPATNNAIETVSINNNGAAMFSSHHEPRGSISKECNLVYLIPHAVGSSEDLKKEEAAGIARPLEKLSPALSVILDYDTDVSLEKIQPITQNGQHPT
Experimental: LHD1 cells (human receptor) are grown and prepared as described for the HA7 cells as described hereafter. The final pellet is resuspended at 5 mg protein/80 ml in 50 mM Tris-HCl containing 120 mM of NaCl, 5 mM of KCl, 2 mM of CaCl2, and 1 mM of MgCl2, pH 7.4. To wells containing 100 μl of test drug or buffer and […] of [^3H]SCH 23390 (0.18 nM final conc.), is added 0.8 ml of cell homogenate (0.05 mg protein/well), and the plates are incubated at […] for 60 min. Nonspecific binding is determined with 1 μM of SCH 23390.

D3 receptor [4] = target: T1, D3 receptor; assay: Inhibition constants for binding to cloned D3 receptor expressed in HEK cells, [3H]spiperone; settings: D3 expressed in HEK cells
Experimental: as §5

5HT2A receptor = target: T7, 5HT2A receptor (Homo sapiens, UniProt P28223); assay: Binding affinity at cloned human 5HT2A receptor, [3H]Ketanserin
T7 construct: expressed in transfected cells
T7 sequence (P28223 whole entry): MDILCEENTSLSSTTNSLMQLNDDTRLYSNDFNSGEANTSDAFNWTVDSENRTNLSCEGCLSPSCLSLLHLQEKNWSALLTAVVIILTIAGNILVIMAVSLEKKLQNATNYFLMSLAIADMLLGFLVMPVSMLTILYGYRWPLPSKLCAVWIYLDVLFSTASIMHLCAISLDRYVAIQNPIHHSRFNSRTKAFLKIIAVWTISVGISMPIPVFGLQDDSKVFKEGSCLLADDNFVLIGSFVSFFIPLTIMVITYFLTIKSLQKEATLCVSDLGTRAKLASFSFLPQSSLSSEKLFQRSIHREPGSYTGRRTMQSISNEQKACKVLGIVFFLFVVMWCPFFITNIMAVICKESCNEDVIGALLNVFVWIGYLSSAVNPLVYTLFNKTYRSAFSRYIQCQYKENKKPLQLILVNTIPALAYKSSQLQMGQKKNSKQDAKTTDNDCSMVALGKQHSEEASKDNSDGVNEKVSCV

D2 receptor [5] = target: T2, D2 receptor; assay: Binding affinity at cloned human D2 receptor, [3H]YM-09151-2 (CHOp-D2 cells)
Experimental: as §3, §4

D3 receptor [6] = target: T1, D3 receptor; assay: Binding affinity at cloned human D3 receptor, [3H]Spiperone (Table 5); design: expressed in transfected cells; host or cells: CHOp-D3 cells; settings: for Ki: cloned human D3, Table 5; for activity at the D3 receptor: Table 5
D2 receptor [7] = target: T2, D2 receptor; assay: Binding affinity at cloned human D2 receptor, [3H]Spiperone (Table 5); settings: for Ki: cloned human D2, Table 5; for affinity for the D2 receptor: Table 5

SMILES | EC50 (D3 receptor [1]) [nM] | Emax (D3 receptor [1]) [%] | Ki (D3 receptor [2]) [nM] | D2/D3 (D3 receptor [2]) | EC50 (D2 receptor [3]) [nM] | Emax (D2 receptor [3]) [%] | Ki (5HT2C receptor) [nM] | Ki (D2L receptor) [nM] | Ki (5HT1A receptor) [nM] | Ki (D1 receptor) [nM] | Ki (D3 receptor [4]) [nM] | Ki (5HT2A receptor) [nM] | Ki (D2 receptor [5]) [nM] | Ki (D3 receptor [6]) [nM] | Ki (D2 receptor [7]) [nM] | activity at the D3 receptor (D3 receptor [6]) | affinity for the D2 receptor (D2 receptor [7]) | selectivity for D3 relative to the standard 7-OH-DPAT (D3 receptor [2]; protocol used in Table 4)
C#CCN(CCCCN1CCN(c2cccc(Cl)c2Cl)CC1)C1CCc2ccc(O)cc2C1 (centres unmarked) [Compound 19b, 7-Hydroxy-2-[N-propargyl-(N-(4-(2,3-dichlorophenyl)-piperazin-1-yl)-butyl)amino]tetralin] | 3.08 ± 1.09 | 90.3 ± 15.5 | 12.7 | 2.3 | 11.8 ± 1.84 | 85.7 ± 9.15 | 264 | 7.37 ± 0.27 | 64.4 | 1720 | 3.59 ± 0.58 | 160 | 28.1 | – | – | – | – | –
CCCN(CCc1ccc(NS(=O)(=O)c2ccc(Cl)cc2)cc1)CCN1CCN(c2ccccc2)CC1 [Compound 30a, 4-Chloro-N-[4-(2-{[2-(4-phenyl-piperazin-1-yl)-ethyl]-propyl-amino}-ethyl)-phenyl]-benzenesulfonamide] | – | – | – | – | – | – | – | – | – | – | – | – | – | 5.98 ± 0.7 | 702 ± 22 | – | – | –
CCCN(CCc1cccc(N)c1)CCN1CCN(c2ccccc2)CC1 [Compound 29b, 3-(2-{[2-(4-Phenyl-piperazin-1-yl)-ethyl]-propyl-amino}-ethyl)-phenylamine] | – | – | – | – | – | – | – | – | – | – | – | – | – | 1480 | 23500 | some activity | exceptionally low affinity | –
CCCN(CCc1cccc(NS(=O)(=O)c2ccc(Cl)cc2)c1)CCN1CCN(c2ccccc2)CC1 [Compound 30b, 4-Chloro-N-[3-(2-{[2-(4-phenyl-piperazin-1-yl)-ethyl]-propyl-amino}-ethyl)-phenyl]-benzenesulfonamide] | – | – | – | – | – | – | – | – | – | – | – | – | – | 36.8 ± 5.4 | 552 ± 31 | – | – | –
C#CCN(CCN1CCN(c2ccccc2)CC1)C1CCc2ccc(O)cc2C1 (centres unmarked) [Compound 12a, 7-Hydroxy-1-2-[N-propargyl-(N-(4-phenylpiperazin-1-yl)-ethyl)amino]tetralin] | 1.25 ± 0.08 | 94.5 ± 6.17 | 23.5 | 2.8 | 6.18 ± 0.18 | 87.2 ± 2.16 | 2690 | 245 ± 26 | 27.6 | 663 | 14.2 ± 1.7 | 161 | 65.5 | – | – | – | – | –
CCCN(CCc1ccc(N)cc1)CCN1CCN(c2ccccc2)CC1 [Compound 29a, 4-(2-{[2-(4-Phenyl-piperazin-1-yl)-ethyl]-propyl-amino}-ethyl)-phenylamine] | – | – | – | – | – | – | – | – | – | – | – | – | – | 1150 | 25600 | some activity | exceptionally low affinity | –
CCCN(CCN1CCN(c2ccccc2)CC1)C1CCc2ccc(O)cc2C1 (centres unmarked) [Compound 15a, 7-Hydroxy-2-[N-propyl-(N-(4-phenylpiperazin-1-yl)-ethyl)amino]tetralin] | 0.97 ± 0.02 | 84.6 ± 10.8 | 3.2 | 25 | 1.59 ± 0.06 | 105 ± 11.3 | > 10000 | 213 ± 26 | 21.4 | > 10000 | 1.75 ± 0.34 | 1540 | 75.5 | – | – | – | – | more than two fold
CCCN(CCCCN1CCN(c2cccc(Cl)c2Cl)CC1)C1CCc2ccc(O)cc2C1 (centres unmarked) [Compound 19a, 7-Hydroxy-2-[N-propyl-(N-(4-(2,3-dichlorophenyl)-piperazin-1-yl)-butyl)amino]tetralin] | 6.49 ± 2.46 | 85.7 ± 1.19 | 2.66 | 15 | 8.31 ± 0.69 | 80.1 ± 8.15 | 639 | 8.78 ± 0.81 | 40.6 | 4060 | 2.26 ± 0.5 | 356 | 31.5 | – | – | – | – | –
